The source made the active and inactive calls. No cut-off for these calls is given here.
Assays:
[1] = target: Amyloid-beta precursor protein (Mus musculus) (UniProt P12023); test: Inhibition of amyloid beta (1 to 42) in mouse BV-2 cells by measuring scavenging effect at 2.5 to 10 uM by ThT fluorescence based immunoblot analysis; type: cell-based; details: dose 2.5-10 µM
[2] = Ratio of drug concentration in hippocampus to plasma of Sprague-Dawley rat at 15 mg/kg, IG measured after 0.083 hrs; type: ADME, organism-based; details: po
BV-2 [3] = test: Effect of amyloid beta (1 to 42) indued apoptosis in mouse BV-2 cells assessed as necrotic cells at 2.5 uM measured by propidium iodide staining based flow cytometric analysis (reference value: 5.72%); type: functional
BV-2 [4] = test: Effect of amyloid beta (1 to 42) indued apoptosis in mouse BV-2 cells assessed as late apoptotic cells at 10 uM measured by propidium iodide staining based flow cytometric analysis (reference value: 6.88%); type: functional
Mus musculus [5] = test: Cognitive enhancement in scopolamine induced ICR alzheimer's disease mouse assessed as gain in body weight pretreated with scopolamine at 3 mg/kg, ip for 31 days followed by compound addition at 20 mg/kg, po at day 7 to 31; type: functional, organism-based; details: time 25.0 day
Mus musculus [6] = test: Neuroprotective effect in scopolamine induced cognitively impaired mouse assessed as decrease in neuronal damage in CA1 region at hippocampus at 20 mg/kg by immunofluorescence staining analysis; type: functional, organism-based
Mus musculus [7] = test: In vivo effect on NRF2 expression in scopolamine induced cognitive impaired mouse assessed as reversal of NRF2 signalling in hippocampus treated at 20 mg/kg by immunoblot analysis; type: functional, organism-based
[8] = Acute toxicity in mouse assessed as histopathological change in heart at 2000 mg/kg, IG administered as single dose measured after 14 days measured by H and E staining analysis; type: organism-based; details: in vivo, po, 336 h, time 14 day
[9] = Drug concentration in plasma of Sprague-Dawley rat at 15 mg/kg, IG measured after 0.083 hrs; type: ADME, organism-based; details: po
[10] = Acute toxicity in mouse assessed as lethal dose administered as single IG dose measured after 14 days measured by H and E staining analysis; details: in vivo, po, time 14 day
[11] = Metal chelating activity assessed as compound-Mn2+ complex formation by optical shift at 50 uM in PBS buffer 7.4 by UV-vis spectrometric analysis
Mus musculus [12] = test: Anti alzheimer activity in scopolamine induced anxiety in ICR mouse assessed as decrease in chaotic behaviour pretreated with scopolamine at 3 mg/kg, ip for 31 days followed by compound addition at 20 mg/kg, po at day 7 to 31 by morris water maze test; type: functional, organism-based; details: time 25.0 day
Mus musculus [13] = test: Anti alzheimer activity in scopolamine induced anxiety in ICR mouse assessed as improved cognitive function pretreated with scopolamine at 3 mg/kg, ip for 31 days followed by compound addition at 20 mg/kg, po at day 7 to 31 by morris water maze test; type: functional, organism-based; details: time 25.0 day
BV-2 [14] = test: Effect of amyloid beta (1 to 42) indued apoptosis in mouse BV-2 cells assessed as necrotic cells at 5 uM measured by propidium iodide staining based flow cytometric analysis (reference value: 5.72%); type: functional
[15] = Acute toxicity in mouse assessed as change in body weight at 2000 mg/kg, IG administered as single dose measured after 14 days; type: organism-based; details: in vivo, po, 336 h, time 14 day
BV-2 [16] = test: Effect of amyloid beta (1 to 42) indued apoptosis in mouse BV-2 cells assessed as early apoptotic cells at 5 uM measured by propidium iodide staining based flow cytometric analysis (reference value: 26.12%); type: functional
Mus musculus [17] = test: In vivo antiinflammatory activity in scopolamine induced cognitive impaired ICR mouse assessed as decrease in Iba1 levels in cortex; type: functional, organism-based
BV-2 [18] = test: Effect of amyloid beta (1 to 42) indued apoptosis in mouse BV-2 cells assessed as late apoptotic cells at 2.5 uM measured by propidium iodide staining based flow cytometric analysis (reference value: 6.88%); type: functional
[19] = Ratio of drug concentration in hippocampus to plasma of Sprague-Dawley rat at 15 mg/kg, IG measured after 1 hrs; type: ADME, organism-based; details: po
Mus musculus [20] = test: Neuroprotective effect in scopolamine induced cognitively impaired mouse assessed as recovery of decreased Nissl bodies in CA1 region at hippocampus at 20 mg/kg by Nissl staining analysis; type: functional, organism-based
[21] = target: T1, Amyloid-beta precursor protein (Homo sapiens, UniProt P05067); test: Inhibition of amyloid beta (1 to 42) (unknown origin) self aggregation at 50 uM relative to control
T1 sequence (P05067 whole entry): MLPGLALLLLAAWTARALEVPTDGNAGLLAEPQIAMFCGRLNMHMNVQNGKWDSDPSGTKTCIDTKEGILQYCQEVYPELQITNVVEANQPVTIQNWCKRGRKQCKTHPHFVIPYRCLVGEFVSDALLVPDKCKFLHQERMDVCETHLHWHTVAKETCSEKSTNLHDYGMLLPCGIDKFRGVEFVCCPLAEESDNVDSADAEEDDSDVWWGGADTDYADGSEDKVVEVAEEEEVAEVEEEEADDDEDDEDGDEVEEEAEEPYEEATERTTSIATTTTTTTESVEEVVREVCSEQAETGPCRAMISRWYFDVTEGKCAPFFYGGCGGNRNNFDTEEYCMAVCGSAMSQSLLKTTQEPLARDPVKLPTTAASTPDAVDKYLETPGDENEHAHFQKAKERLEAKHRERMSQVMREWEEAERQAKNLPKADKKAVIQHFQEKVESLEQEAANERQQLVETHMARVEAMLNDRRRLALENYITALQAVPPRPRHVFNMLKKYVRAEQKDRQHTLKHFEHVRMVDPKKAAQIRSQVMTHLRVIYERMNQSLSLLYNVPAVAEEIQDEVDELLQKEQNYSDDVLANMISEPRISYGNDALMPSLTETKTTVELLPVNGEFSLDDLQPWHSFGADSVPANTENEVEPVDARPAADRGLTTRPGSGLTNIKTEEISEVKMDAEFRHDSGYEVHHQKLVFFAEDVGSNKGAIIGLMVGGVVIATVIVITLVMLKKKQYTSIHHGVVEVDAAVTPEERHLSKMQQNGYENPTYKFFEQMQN

[22] = Drug concentration in plasma of Sprague-Dawley rat at 15 mg/kg, IG measured after 0.25 hrs; type: ADME, organism-based; details: po
Mus musculus [23] = test: Neuroprotective effect in scopolamine induced cognitively impaired mouse assessed as […] of amyloid beta plaque deposition at 20 mg/kg by ELISA analysis; type: functional, organism-based
Mus musculus [24] = test: Anti alzheimer activity in scopolamine induced anxiety in ICR mouse assessed as increase in discrimination ratio pretreated with scopolamine at 3 mg/kg, ip for 31 days followed by compound addition at 20 mg/kg, po at day 7 to 31 by novel object recognition test; type: functional, organism-based; details: time 25.0 day
[25] = Cmax in Sprague-Dawley rat at 15 mg/kg, IG; type: ADME, organism-based; design: dose 15 mg/kg, route ig; details: in vivo, po
[26] = target: T1, Amyloid-beta precursor protein; test: Inhibition of Cu2+ induced of amyloid beta (1 to 42) aggregation (unknown origin)
[27] = target: T1, Amyloid-beta precursor protein; test: Inhibition of amyloid beta (1 to 42) (unknown origin) self aggregation assessed as disaggregation
Mus musculus [28] = test: In vivo antiinflammatory activity in scopolamine induced cognitive impaired ICR mouse assessed as decrease in GFAP levels in cortex; type: functional, organism-based
[29] = Ratio of drug concentration in hippocampus to plasma of Sprague-Dawley rat at 15 mg/kg, IG measured after 0.25 hrs; type: ADME, organism-based; details: po
[30] = Metal chelating activity assessed as compound-Ca2+ complex formation by optical shift at 50 uM in PBS buffer 7.4 by UV-vis spectrometric analysis
[31] = Metal chelating activity assessed as compound-Mg2+ complex formation by optical shift at 50 uM in PBS buffer 7.4 by UV-vis spectrometric analysis
[32] = Metal chelating activity assessed as compound-Na+ complex formation by optical shift at 50 uM in PBS buffer 7.4 by UV-vis spectrometric analysis
BV-2 [33] = test: Effect on H2O2 induced reactive oxygen species in mouse BV-2 cells assessed as reduction of ROS generation at 20 uM by fluorescence microscopic analysis relative to control; type: functional; design: scale not given: the % may be the effect or the level left
[34] = Drug concentration in hippocampus of Sprague-Dawley rat at 15 mg/kg, IG measured after 0.167 hrs; type: ADME, organism-based; details: po, read-out: Drug uptake
BV-2 [35] = test: Antiinflammatory activity in LPS induced mouse BV-2 cells decrease in release of […] at 5 uM by […] (reference value: 100%); type: functional
Mus musculus [36] = test: In vivo antiinflammatory activity in scopolamine induced cognitive impaired ICR mouse assessed as decrease in IL-1 levels in cortex; type: functional, organism-based
Mus musculus [37] = test: Antioxidant activity in scopolamine induced cognitive impaired mouse assessed as decrease of MDA level in cortex at 20 mg/kg; type: functional, organism-based
[38] = Metal chelating activity assessed as compound-Fe2+ complex formation by measuring shift at 2:1 at 50 uM in PBS buffer 7.4 by UV-vis spectrometric analysis

Chain of Amyloid-beta precursor protein (Mus musculus) (P12023 whole entry): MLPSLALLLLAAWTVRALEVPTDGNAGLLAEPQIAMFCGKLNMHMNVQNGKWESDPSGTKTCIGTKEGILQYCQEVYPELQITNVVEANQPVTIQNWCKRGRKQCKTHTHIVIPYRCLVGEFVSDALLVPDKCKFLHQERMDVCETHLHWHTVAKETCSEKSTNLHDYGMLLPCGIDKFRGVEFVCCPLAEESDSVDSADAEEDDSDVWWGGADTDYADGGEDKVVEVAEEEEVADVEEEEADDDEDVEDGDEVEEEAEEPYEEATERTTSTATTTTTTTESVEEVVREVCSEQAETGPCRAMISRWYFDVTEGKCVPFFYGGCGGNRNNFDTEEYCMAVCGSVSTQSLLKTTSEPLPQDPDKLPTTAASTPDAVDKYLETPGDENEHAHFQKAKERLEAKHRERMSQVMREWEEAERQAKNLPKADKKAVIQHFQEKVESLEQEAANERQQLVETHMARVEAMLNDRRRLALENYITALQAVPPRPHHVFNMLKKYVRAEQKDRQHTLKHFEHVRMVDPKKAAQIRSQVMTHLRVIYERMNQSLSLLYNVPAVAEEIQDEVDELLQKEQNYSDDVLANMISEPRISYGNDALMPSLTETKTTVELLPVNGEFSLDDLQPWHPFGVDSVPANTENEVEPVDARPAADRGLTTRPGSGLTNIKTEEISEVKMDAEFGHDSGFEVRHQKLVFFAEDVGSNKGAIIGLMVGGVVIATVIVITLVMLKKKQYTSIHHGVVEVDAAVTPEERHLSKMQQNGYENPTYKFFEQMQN

## O=c1ccoc(/C=C/c2ccc(O)c(O)c2)c1O
[1]
  inhibition: Active
[2]
  Kp at 0.083 h: 0.07
BV-2 [3]
  Activity: 0.16%
BV-2 [4]
  Activity: 6.82%
Mus musculus [5]
  Activity: Active
Mus musculus [6]
  Activity: Active
Mus musculus [7]
  Activity: Active
[8]
  Activity: Non-Toxic
[9]
  concentration at 0.083 h: 18.5 ng/mL
[10]
  LD50 at 336 h: ≥ 2000 mg/kg
[11]
  Activity: inactive
Mus musculus [12]
  Activity: Active
Mus musculus [13]
  Activity: Active
BV-2 [14]
  Activity: 0.84%
[15]
  Activity: Non-Toxic
BV-2 [16]
  Activity: 8.32%
Mus musculus [17]
  Activity: Active
BV-2 [18]
  Activity: 10.2%
[19]
  Kp at 1 h: 5.04
Mus musculus [20]
  Activity: Active
[21]
  inhibition: 80.3%
[22]
  concentration at 0.25 h: 5.32 ng/mL
Mus musculus [23]
  Activity: Active
Mus musculus [24]
  Activity: Active
[25]
  Cmax: 14.4 ng/mL
[26]
  IC50: 3.69 µM
[27]
  IC50: 6.87 µM
Mus musculus [28]
  Activity: Active
[29]
  Kp at 0.25 h: 0.5
[30]
  Activity: inactive
[31]
  Activity: inactive
[32]
  Activity: inactive
BV-2 [33]
  Activity: 45.48%
[34]
  concentration at 0.167 h: 1.41 ng/mL
BV-2 [35]
  Nitric oxide release (% of LPS control): 86.32%
Mus musculus [36]
  Activity: Active
Mus musculus [37]
  Activity: Active
[38]
  Activity: Active

Source: ChEMBL document CHEMBL5325414, “Novel neuroprotective pyromeconic acid derivatives with concurrent anti-Aβ deposition, anti-inflammatory, and anti-oxidation properties for treatment of Alzheimer's disease” (Eur J Med Chem, 2023)
